≈ marks a conversion by molar mass, not a printed value.
Assays:
[1] = Dissolving the compound with solubilizer in heated, vacuum-stirred water for injection under nitrogen or argon gas (preparation tank); assay type: physicochemical; conditions: kept at 80 °C, nitrogen gas
Procedure: In view of this, the present invention provides a method for dissolving a carbon glycoside compound or a stilbene compound, characterized in that the method comprises the following steps: • heating water for injection to 80-98 °C, followed by stirring under vacuum condition at 30-80 °C, and then adding the carbon glycoside compound or the stilbene compound along with a solubilizer under the protection of nitrogen gas or argon gas to obtain a solution of said compounds; • wherein the solubilizer is one or a mixture of two or more of gastrodin, water-soluble cyclodextrin and ethanol, and wherein the water-soluble cyclodextrin is one or a mixture of two or more of methyl-β-cyclodextrin, thioether-β-cyclodextrin and sulfobutyl ether-β-cyclodextrin; and • wherein the mass ratio of the carbon glycoside compound or the stilbene compound to the solubilizer is 1:1-20.
Disclosed is a method for dissolving a flavonoid compound, a carbon glycoside compound or a stilbene compound, including: • mixing the flavonoid compound, the carbon glycoside compound or the stilbene compound with a solubilizer to obtain a reactant; and • heating water for injection to 80-98 °C, followed by stirring under vacuum conditions at 30-80 °C, and then adding the reactant under the protection of nitrogen gas or argon gas to obtain a solution of the reactant.
Considering the sensitivity to heat or light of the flavonoid compound, the carbon glycoside compound or the stilbene compound, a method is provided by heating water for injection to 80-98 °C to remove dissolved oxygen and other gases in water, which reduces the surface tension of water, increases the contact area of water with the flavonoid compound, the carbon glycoside compound or the stilbene compound, thus increasing the dissolution speed. Meanwhile, pre-heating the water for injection can effectively avoid degradation of the flavonoid compound, the carbon glycoside compound or the stilbene compound due to exposure to the dissolved oxygen, to eliminate unstable factors of the flavonoid compound, the carbon glycoside compound or the stilbene compound. The vacuum conditions can achieve further deoxygenation, facilitating the dissolution of the flavonoid compound, the carbon glycoside compound or the stilbene compound in water. Nitrogen gas or argon gas provides an inert atmosphere, which further reduces the surface tension of the materials, increases the contact area of the flavonoid compound, the carbon glycoside compound or the stilbene compound with water, and increases the dissolution speed.

[2] = Solubility of triptophenolide in aqueous solutions with different concentrations of gastrodin and/or water-soluble cyclodextrin; assay type: physicochemical; conditions: aqueous solution of solubilizer
Source text: Table 1. Solubility of triptophenolide in aqueous solutions with different concentrations of gastrodin and/or water-soluble cyclodextrin

dissolved in (time) ([1]; Example 35: 5 g with Gastrodin 80 g in 1000 ml, water heated to 95 °C, vacuum stirring 10 minutes): about 5 minutes
dissolved in (time) ([1]; Example 36: 20 g with Gastrodin 200 g in 1000 ml, water heated to 95 °C, vacuum stirring 10 minutes): about 5 minutes
dissolved in (time) ([1]; Example 37: 10 g with Gastrodin 80 g in 1000 ml, water heated to 95 °C, vacuum stirring 10 minutes): about 5 minutes
dissolved in (time) ([1]; Example 38: 25 g with Gastrodin 80 g, Hydroxypropyl-β-cyclodextrin 30 g in 1000 ml, water heated to 95 °C, vacuum stirring 10 minutes): about 5 minutes
dissolved in (time) ([1]; Example 47: 5 g with Methyl-β-cyclodextrin 30 g in 1000 ml, water heated to 88 °C, vacuum stirring 40 minutes): about 5 minutes
dissolved in (time) ([1]; Example 51: 10 g with Methyl-β-cyclodextrin 30 g in 1000 ml, water heated to 95 °C, vacuum stirring 10 minutes): about 5 minutes
dissolved in (time) ([1]; Example 52: 10 g with Thioether-β-cyclodextrin 30 g in 1000 ml, water heated to 95 °C, vacuum stirring 10 minutes): about 5 minutes
dissolved in (time) ([1]; Example 55: 10 g with Methyl-β-cyclodextrin 50 g in 1000 ml, water heated to 95 °C, vacuum stirring 10 minutes): about 5 minutes
dissolved in (time) ([1]; Example 58: 20 g with Hydroxypropyl-β-cyclodextrin 50 g in 1000 ml, water heated to 95 °C, vacuum stirring 10 minutes): about 5 minutes
dissolved in (time) ([1]; Example 59: 20 g with Methyl-β-cyclodextrin 50 g in 1000 ml, water heated to 95 °C, vacuum stirring 10 minutes): about 5 minutes
dissolved in (time) ([1]; Example 61: 20 g with Sulfobutyl ether-β-cyclodextrin 50 g in 1000 ml, water heated to 95 °C, vacuum stirring 10 minutes): about 5 minutes
dissolved in (time) ([1]; Example 63: 5 g with Gastrodin 100 g in 1000 ml, water heated to 95 °C, vacuum stirring 10 minutes): about 5 minutes
dissolved in (time) ([1]; Example 65: 5 g with Gastrodin 100 g in 1000 ml, water heated to 95 °C, vacuum stirring 10 minutes): about 5 minutes
dissolved in (time) ([1]; Example 68: 50 g with Hydroxypropyl-β-cyclodextrin 80 g in 1000 ml, water heated to 95 °C, vacuum stirring 10 minutes): about 5 minutes
dissolved in (time) ([1]; Example 69: 50 g with Methyl-β-cyclodextrin 80 g in 1000 ml, water heated to 95 °C, vacuum stirring 10 minutes): about 5 minutes
dissolved in (time) ([1]; Example 70: 50 g with Thioether-β-cyclodextrin 80 g in 1000 ml, water heated to 95 °C, vacuum stirring 10 minutes): about 5 minutes
dissolved in (time) ([1]; Example 71: 50 g with Sulfobutyl ether-β-cyclodextrin 80 g (formula; text: hydroxypropyl-β-cyclodextrin) in 1000 ml, water heated to 95 °C, vacuum stirring 10 minutes): about 5 minutes
dissolved in (time) ([1]; Example 72: 50 g with Hydroxypropyl-β-cyclodextrin 80 g in 1000 ml, water heated to 95 °C, vacuum stirring 10 minutes): about 5 minutes
dissolved in (time) ([1]; Example 73: 50 g with Hydroxypropyl-β-cyclodextrin 80 g in 1000 ml, water heated to 95 °C, vacuum stirring 10 minutes): about 5 minutes
dissolved in (time) ([1]; Example 74: 5 g with Gastrodin 0.5 g in 1000 ml, water heated to 95 °C, vacuum stirring 10 minutes): about 5 minutes
dissolved in (time) ([1]; Example 80: 10 g with Hydroxypropyl-β-cyclodextrin 30 g in 1000 ml, water heated to 95 °C, vacuum stirring 10 minutes): about 5 minutes
solubility ([2]; aqueous with cosolvent or surfactant or cyclodextrin, Gastrodin concentration 1 %): 3.19 mg/mL (≈ 7.85 mM)
solubility ([2]; aqueous with cosolvent or surfactant or cyclodextrin, Gastrodin concentration 3 %): 5.1 mg/mL (≈ 12.5 mM)
solubility ([2]; aqueous with cosolvent or surfactant or cyclodextrin, Gastrodin concentration 5 %): 7.11 mg/mL (≈ 17.5 mM)
solubility ([2]; aqueous with cosolvent or surfactant or cyclodextrin, Gastrodin concentration 8 %): 9.17 mg/mL (≈ 22.6 mM)
solubility ([2]; aqueous with cosolvent or surfactant or cyclodextrin, Gastrodin concentration 10 %): 11.4 mg/mL (≈ 28.1 mM)
solubility ([2]; aqueous with cosolvent or surfactant or cyclodextrin, Gastrodin concentration 15 %): 11.8 mg/mL (≈ 28.9 mM)
solubility ([2]; aqueous with cosolvent or surfactant or cyclodextrin, Gastrodin concentration 25 %): 38.4 mg/mL (≈ 94.4 mM)
solubility ([2]; aqueous with cosolvent or surfactant or cyclodextrin, Gastrodin concentration 30 %): 60.4 mg/mL (≈ 149 mM)
solubility ([2]; aqueous with cosolvent or surfactant or cyclodextrin, Gastrodin concentration 35 %): 87.8 mg/mL (≈ 216 mM)
solubility ([2]; aqueous with cosolvent or surfactant or cyclodextrin, Gastrodin concentration 40 %): 85.1 mg/mL (≈ 209 mM)
solubility ([2]; aqueous with cosolvent or surfactant or cyclodextrin, Gastrodin concentration 45 %): 98 mg/mL (≈ 241 mM)
solubility ([2]; aqueous with cosolvent or surfactant or cyclodextrin, Gastrodin concentration 50 %): 105 mg/mL (≈ 258 mM)
solubility ([2]; aqueous with cosolvent or surfactant or cyclodextrin, Hydroxypropyl-β-cyclodextrin concentration 1 %): 4.8 mg/mL (≈ 11.8 mM)
solubility ([2]; aqueous with cosolvent or surfactant or cyclodextrin, Hydroxypropyl-β-cyclodextrin concentration 3 %): 10.8 mg/mL (≈ 26.5 mM)
solubility ([2]; aqueous with cosolvent or surfactant or cyclodextrin, Hydroxypropyl-β-cyclodextrin concentration 5 %): 20 mg/mL (≈ 49.3 mM)
solubility ([2]; aqueous with cosolvent or surfactant or cyclodextrin, Hydroxypropyl-β-cyclodextrin concentration 8 %): 26.1 mg/mL (≈ 64.3 mM)
solubility ([2]; aqueous with cosolvent or surfactant or cyclodextrin, Hydroxypropyl-β-cyclodextrin concentration 10 %): 34.1 mg/mL (≈ 83.9 mM)
solubility ([2]; aqueous with cosolvent or surfactant or cyclodextrin, Hydroxypropyl-β-cyclodextrin concentration 15 %): 43.3 mg/mL (≈ 106 mM)
solubility ([2]; aqueous with cosolvent or surfactant or cyclodextrin, Hydroxypropyl-β-cyclodextrin concentration 20 %): 59.2 mg/mL (≈ 146 mM)
solubility ([2]; aqueous with cosolvent or surfactant or cyclodextrin, Hydroxypropyl-β-cyclodextrin concentration 25 %): 64.3 mg/mL (≈ 158 mM)
solubility ([2]; aqueous with cosolvent or surfactant or cyclodextrin, Hydroxypropyl-β-cyclodextrin concentration 30 %): 116 mg/mL (≈ 286 mM)
solubility ([2]; aqueous with cosolvent or surfactant or cyclodextrin, Hydroxypropyl-β-cyclodextrin concentration 35 %): 159 mg/mL (≈ 392 mM)
solubility ([2]; aqueous with cosolvent or surfactant or cyclodextrin, Hydroxypropyl-β-cyclodextrin concentration 40 %): 189 mg/mL (≈ 464 mM)
solubility ([2]; aqueous with cosolvent or surfactant or cyclodextrin, Hydroxypropyl-β-cyclodextrin concentration 45 %): 181 mg/mL (≈ 444 mM)
solubility ([2]; aqueous with cosolvent or surfactant or cyclodextrin, Hydroxypropyl-β-cyclodextrin concentration 50 %): 183 mg/mL (≈ 451 mM)
solubility ([2]; aqueous with cosolvent or surfactant or cyclodextrin, Solubilizer concentration: Gastrodin 0 %, Hydroxypropyl-β-cyclodextrin 3 %): 10.8 mg/mL (≈ 26.5 mM)
solubility ([2]; aqueous with cosolvent or surfactant or cyclodextrin, Solubilizer concentration: Gastrodin 1 %, Hydroxypropyl-β-cyclodextrin 3 %): 14.8 mg/mL (≈ 36.4 mM)
solubility ([2]; aqueous with cosolvent or surfactant or cyclodextrin, Solubilizer concentration: Gastrodin 3 %, Hydroxypropyl-β-cyclodextrin 3 %): 16.2 mg/mL (≈ 39.9 mM)
solubility ([2]; aqueous with cosolvent or surfactant or cyclodextrin, Solubilizer concentration: Gastrodin 5 %, Hydroxypropyl-β-cyclodextrin 3 %): 22.6 mg/mL (≈ 55.6 mM)
solubility ([2]; aqueous with cosolvent or surfactant or cyclodextrin, Solubilizer concentration: Gastrodin 8 %, Hydroxypropyl-β-cyclodextrin 3 %): 30.9 mg/mL (≈ 76.1 mM)
solubility ([2]; aqueous with cosolvent or surfactant or cyclodextrin, Solubilizer concentration: Gastrodin 10 %, Hydroxypropyl-β-cyclodextrin 3 %): 39.8 mg/mL (≈ 98 mM)
solubility ([2]; aqueous with cosolvent or surfactant or cyclodextrin, Solubilizer concentration: Gastrodin 15 %, Hydroxypropyl-β-cyclodextrin 3 %): 56 mg/mL (≈ 138 mM)
solubility ([2]; aqueous with cosolvent or surfactant or cyclodextrin, Solubilizer concentration: Gastrodin 20 %, Hydroxypropyl-β-cyclodextrin 3 %): 107 mg/mL (≈ 264 mM)
solubility ([2]; aqueous with cosolvent or surfactant or cyclodextrin, Solubilizer concentration: Gastrodin 25 %, Hydroxypropyl-β-cyclodextrin 3 %): 127 mg/mL (≈ 312 mM)
solubility ([2]; aqueous with cosolvent or surfactant or cyclodextrin, Solubilizer concentration: Gastrodin 30 %, Hydroxypropyl-β-cyclodextrin 3 %): 181 mg/mL (≈ 446 mM)
solubility ([2]; aqueous with cosolvent or surfactant or cyclodextrin, Solubilizer concentration: Gastrodin 35 %, Hydroxypropyl-β-cyclodextrin 3 %): 233 mg/mL (≈ 574 mM)
solubility ([2]; aqueous with cosolvent or surfactant or cyclodextrin, Solubilizer concentration: Gastrodin 40 %, Hydroxypropyl-β-cyclodextrin 3 %): 197 mg/mL (≈ 485 mM)
solubility ([2]; aqueous with cosolvent or surfactant or cyclodextrin, Solubilizer concentration: Gastrodin 45 %, Hydroxypropyl-β-cyclodextrin 3 %): 187 mg/mL (≈ 460 mM)
solubility ([2]; aqueous with cosolvent or surfactant or cyclodextrin, Solubilizer concentration: Gastrodin 50 %, Hydroxypropyl-β-cyclodextrin 3 %): 188 mg/mL (≈ 463 mM)
solubility ([2]; water, Gastrodin concentration 0 %): 1.75 mg/mL (≈ 4.31 mM)
solubility ([2]; water, Hydroxypropyl-β-cyclodextrin concentration 0 %): 1.75 mg/mL (≈ 4.31 mM)
Compound: OC[C@H]1O[C@@H](Oc2cc(/C=C/c3cc(O)cc(O)c3)ccc2O)[C@H](O)[C@@H](O)[C@@H]1O
